Reference: the NIST ThermoML archive (doi:10.1016/j.jct.2006.10.008)

Assays:
[1] = excess molar enthalpy (molar enthalpy of mixing); xn = mol fraction of the nth substance listed; details: 298.15 K, 101 kPa, Liquid, Calvet calorimetry
[2] = xn = mol fraction of the nth substance listed; details: 298.15 K, 101 kPa, Liquid

ClCCCCCCl [1,5-dichloropentane] + CCCOC=O
Details | excess molar enthalpy [kcal/mol] | mass density [kg/m3]
[1], x2 = 0.0792 | 0.0136 | –
[1], x2 = 0.1664 | 0.0219 | –
[1], x2 = 0.2538 | 0.0276 | –
[1], x2 = 0.3307 | 0.0289 | –
[1], x2 = 0.4063 | 0.0282 | –
[1], x2 = 0.4789 | 0.0251 | –
[1], x2 = 0.5175 | 0.022 | –
[1], x2 = 0.5645 | 0.0176 | –
[1], x2 = 0.6145 | 0.0142 | –
[1], x2 = 0.6665 | 0.00935 | –
[1], x2 = 0.7229 | 0.00478 | –
[1], x2 = 0.7817 | 0.0016 | –
[1], x2 = 0.8389 | -0.00249 | –
[1], x2 = 0.8948 | -0.00507 | –
[1], x2 = 0.9503 | -0.00287 | –
[2], x2 = 0.0753 | – | 1084.21
[2], x2 = 0.1495 | – | 1073.17
[2], x2 = 0.2212 | – | 1062.01
[2], x2 = 0.2884 | – | 1051.29
[2], x2 = 0.3607 | – | 1039.4
[2], x2 = 0.4174 | – | 1029.7
[2], x2 = 0.4802 | – | 1018.63
[2], x2 = 0.5386 | – | 1008.06
[2], x2 = 0.6024 | – | 996.11
[2], x2 = 0.6568 | – | 985.57
[2], x2 = 0.7118 | – | 974.66
[2], x2 = 0.8133 | – | 953.48
[2], x2 = 0.8586 | – | 943.64
[2], x2 = 0.9056 | – | 933.22
[2], x2 = 0.9555 | – | 921.68

CCCCCOC=O [pentyl methanoate] + ClCCCCCCl
Details | excess molar enthalpy [kcal/mol] | mass density [kg/m3]
[1], x1 = 0.0613 | -0.00304 | –
[1], x1 = 0.141 | -0.00758 | –
[1], x1 = 0.2146 | -0.0133 | –
[1], x1 = 0.2884 | -0.0206 | –
[1], x1 = 0.3563 | -0.0273 | –
[1], x1 = 0.4177 | -0.0314 | –
[1], x1 = 0.4725 | -0.0349 | –
[1], x1 = 0.5239 | -0.0355 | –
[1], x1 = 0.5551 | -0.0363 | –
[1], x1 = 0.6165 | -0.0347 | –
[1], x1 = 0.6887 | -0.0321 | –
[1], x1 = 0.7706 | -0.0272 | –
[1], x1 = 0.8586 | -0.0187 | –
[1], x1 = 0.9347 | -0.00997 | –
[2], x1 = 0.0607 | – | 1082.26
[2], x1 = 0.1185 | – | 1069.95
[2], x1 = 0.1761 | – | 1057.7
[2], x1 = 0.2336 | – | 1045.52
[2], x1 = 0.2924 | – | 1033.04
[2], x1 = 0.3501 | – | 1020.86
[2], x1 = 0.4661 | – | 996.38
[2], x1 = 0.5254 | – | 983.92
[2], x1 = 0.6434 | – | 959.15
[2], x1 = 0.7028 | – | 946.7
[2], x1 = 0.7612 | – | 934.48
[2], x1 = 0.8194 | – | 922.34
[2], x1 = 0.8788 | – | 909.95
[2], x1 = 0.9368 | – | 897.88

CCCOC=O [propyl methanoate] + ClCCCCl
Details | excess molar enthalpy [kcal/mol] | mass density [kg/m3]
[1], x1 = 0.0618 | -0.000717 | –
[1], x1 = 0.1342 | -0.00406 | –
[1], x1 = 0.2092 | -0.00951 | –
[1], x1 = 0.2838 | -0.0162 | –
[1], x1 = 0.3515 | -0.0231 | –
[1], x1 = 0.4148 | -0.0297 | –
[1], x1 = 0.4714 | -0.0358 | –
[1], x1 = 0.503 | -0.0397 | –
[1], x1 = 0.5539 | -0.0461 | –
[1], x1 = 0.6084 | -0.0502 | –
[1], x1 = 0.6696 | -0.0491 | –
[1], x1 = 0.7356 | -0.0441 | –
[1], x1 = 0.8024 | -0.0365 | –
[1], x1 = 0.8727 | -0.0258 | –
[1], x1 = 0.9394 | -0.0134 | –
[2], x1 = 0.0612 | – | 1161.75
[2], x1 = 0.1204 | – | 1145.46
[2], x1 = 0.1775 | – | 1129.76
[2], x1 = 0.2355 | – | 1113.91
[2], x1 = 0.2944 | – | 1097.92
[2], x1 = 0.3527 | – | 1082.1
[2], x1 = 0.4109 | – | 1066.46
[2], x1 = 0.4695 | – | 1050.7
[2], x1 = 0.5286 | – | 1034.93
[2], x1 = 0.5863 | – | 1019.65
[2], x1 = 0.6459 | – | 1003.85
[2], x1 = 0.7044 | – | 988.35
[2], x1 = 0.763 | – | 972.97
[2], x1 = 0.8214 | – | 957.74
[2], x1 = 0.8796 | – | 942.43
[2], x1 = 0.9386 | – | 927.1

ClCCCCl [1,3-dichloropropane] + COC=O
Details | excess molar enthalpy [kcal/mol] | mass density [kg/m3]
[1], x2 = 0.0855 | 0.0211 | –
[1], x2 = 0.2024 | 0.0493 | –
[1], x2 = 0.3078 | 0.0673 | –
[1], x2 = 0.4178 | 0.0803 | –
[1], x2 = 0.4624 | 0.08236 | –
[1], x2 = 0.4877 | 0.0832 | –
[1], x2 = 0.5024 | 0.08372 | –
[1], x2 = 0.5476 | 0.0843 | –
[1], x2 = 0.5583 | 0.08203 | –
[1], x2 = 0.5978 | 0.0807 | –
[1], x2 = 0.6499 | 0.078 | –
[1], x2 = 0.7069 | 0.0738 | –
[1], x2 = 0.7674 | 0.0679 | –
[1], x2 = 0.8297 | 0.0585 | –
[1], x2 = 0.893 | 0.0448 | –
[1], x2 = 0.9533 | 0.0246 | –
[2], x2 = 0.0849 | – | 1165.85
[2], x2 = 0.165 | – | 1152.81
[2], x2 = 0.244 | – | 1139.5
[2], x2 = 0.3177 | – | 1126.33
[2], x2 = 0.386 | – | 1113.56
[2], x2 = 0.4563 | – | 1099.9
[2], x2 = 0.5138 | – | 1088.31
[2], x2 = 0.5789 | – | 1074.43
[2], x2 = 0.635 | – | 1062.04
[2], x2 = 0.688 | – | 1049.82
[2], x2 = 0.7384 | – | 1037.54
[2], x2 = 0.7876 | – | 1025.35
[2], x2 = 0.8341 | – | 1013.43
[2], x2 = 0.878 | – | 1001.59
[2], x2 = 0.9206 | – | 989.81
[2], x2 = 0.9607 | – | 978.24

CCCCCOC=O [pentyl methanoate] + ClCCCCl
Details | excess molar enthalpy, [1] [kcal/mol] | mass density, [2] [kg/m3]
x1 = 0.0471 | – | 1159.68
x1 = 0.0477 | -0.00664 | –
x1 = 0.0911 | – | 1142.71
x1 = 0.1093 | -0.0151 | –
x1 = 0.1377 | – | 1125.33
x1 = 0.1729 | -0.0245 | –
x1 = 0.1848 | – | 1108.29
x1 = 0.2341 | – | 1091.1
x1 = 0.2358 | -0.0341 | –
x1 = 0.2905 | -0.0437 | –
x1 = 0.3403 | – | 1056.06
x1 = 0.3427 | -0.0529 | –
x1 = 0.3933 | -0.0605 | –
x1 = 0.4528 | – | 1021.65
x1 = 0.4564 | -0.0661 | –
x1 = 0.5122 | -0.0678 | 1004.48
x1 = 0.5719 | -0.0682 | –
x1 = 0.5737 | – | 987.37
x1 = 0.6379 | – | 970.23
x1 = 0.6452 | -0.0655 | –
x1 = 0.7034 | – | 953.41
x1 = 0.7254 | -0.0585 | –
x1 = 0.7721 | – | 936.49
x1 = 0.8109 | -0.045 | –
x1 = 0.8438 | – | 919.53
x1 = 0.9161 | -0.0244 | –
x1 = 0.9188 | – | 902.44
